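Where inhibition never reached the appropriate level, the endpoint shown equals the highest concentration tested. Otherwise, values were interpolated linearly from a five-concentration, 48-hour dose response in 96-well plates. GI50 = concentration required for 50% inhibition of growth.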 Activity calls are given as the source filed them. Rule as the data show it: active = GI50 up to about 1.1 µM and inactive = higher.
Assays:
Experiment in all cases: NCI anticancer screen, dose series, 48 h
SW-620 = system: SW-620
CCRF-CEM = system: CCRF-CEM
SF-539 = system: SF-539
MDA-MB-435 = system: MDA-MB-435
MDA-MB-231 = system: MDA-MB-231
HT-29 = system: HT-29
U-251 = system: U-251
UACC-257 = system: UACC-257
SF-268 = system: SF-268
TK-10 = system: TK-10
SF-295 = system: SF-295
HOP-92 = system: HOP-92
HOP-62 = system: HOP-62
K562 = system: K562
OVCAR-3 = system: OVCAR-3
KM12 = system: KM12
HCT-15 = system: HCT-15
A498 = system: A498
SNB-19 = system: SNB-19

Structure (SMILES)	GI50 (SW-620)	GI50 (CCRF-CEM)	GI50 (SF-539)	GI50 (MDA-MB-435)	GI50 (MDA-MB-231)	GI50 (HT-29)	GI50 (U-251)	GI50 (UACC-257)	GI50 (SF-268)	GI50 (TK-10)	GI50 (SF-295)	GI50 (HOP-92)	GI50 (HOP-62)	GI50 (K562)	GI50 (OVCAR-3)	GI50 (KM12)	GI50 (HCT-15)	GI50 (A498)	GI50 (SNB-19)
Cc1cc(S(=O)(=O)n2ccnc2Oc2cccc(Cl)c2)c(SSc2cc(Cl)c(C)cc2S(=O)(=O)n2ccnc2Oc2cccc(Cl)c2)cc1Cl	11.7 µM (inactive)	2.81 µM (inactive)	4.54 µM (inactive)	5.65 µM (inactive)	12.4 µM (inactive)	7.83 µM (inactive)	3.18 µM (inactive)	8.09 µM (inactive)	7.43 µM (inactive)	29 µM (inactive)	4.19 µM (inactive)	4.39 µM (inactive)	9.57 µM (inactive)	9.93 µM (inactive)	8.02 µM (inactive)	5.66 µM (inactive)	8.67 µM	12.2 µM (inactive)	–
CC(C)C[C@H](NC(=O)[C@H](CCc1ccccc1)NC(=O)c1ccc2ccccc2n1)B(O)O	< 0.01 µM (active)	< 0.01 µM (active)	< 0.01 µM (active)	< 0.01 µM (active)	0.134 µM (active)	< 0.0113 µM (active)	0.178 µM (active)	< 0.0156 µM (active)	0.0571 µM (active)	< 0.01 µM (active)	0.053 µM (active)	0.0329 µM (active)	0.176 µM (active)	0.0439 µM (active)	< 0.01 µM (active)	0.0644 µM (active)	0.0883 µM	0.0471 µM (active)	–
COc1cc2c(cc1OS(C)(=O)=O)N=C[C@@H]1CCCN1C2=O	> 100 µM (inactive)	72.3 µM (inactive)	> 100 µM (inactive)	> 100 µM (inactive)	> 100 µM (inactive)	> 100 µM (inactive)	> 100 µM (inactive)	> 100 µM (inactive)	> 100 µM (inactive)	> 100 µM (inactive)	> 100 µM (inactive)	> 100 µM (inactive)	–	–	> 100 µM (inactive)	> 100 µM (inactive)	> 100 µM	> 100 µM (inactive)	> 100 µM (inactive)
O=C1CC(=O)NC(NN2C(=O)/C(=C/C(=O)c3ccco3)N=C2c2ccccc2)=N1	73.6 µM (inactive)	20.6 µM (inactive)	44.1 µM (inactive)	63.7 µM (inactive)	> 100 µM (inactive)	> 100 µM (inactive)	47.5 µM (inactive)	92.3 µM (inactive)	> 100 µM (inactive)	> 100 µM (inactive)	94.2 µM (inactive)	24.8 µM (inactive)	> 100 µM (inactive)	–	42.4 µM (inactive)	30.5 µM (inactive)	> 100 µM	> 100 µM (inactive)	–
C/C=C1\C(=O)OC2CCN3CCC(COC(=O)C(C)(O)C(C)C1O)C23 (stereo unspecified)	> 100 µM (inactive)	–	> 100 µM (inactive)	> 100 µM (inactive)	> 100 µM (inactive)	> 100 µM (inactive)	> 100 µM (inactive)	> 100 µM (inactive)	> 100 µM (inactive)	> 100 µM (inactive)	> 100 µM (inactive)	> 100 µM (inactive)	–	> 100 µM (inactive)	–	> 100 µM (inactive)	> 100 µM	> 100 µM (inactive)	> 100 µM (inactive)
COC(=O)C1C(OC(=O)c2ccccc2)CC2CCC1N2C(N)=O (stereo unspecified)	> 100 µM (inactive)	> 100 µM (inactive)	> 100 µM (inactive)	> 100 µM (inactive)	> 100 µM (inactive)	> 100 µM (inactive)	> 100 µM (inactive)	> 100 µM (inactive)	> 100 µM (inactive)	–	> 100 µM (inactive)	> 100 µM (inactive)	> 100 µM (inactive)	> 100 µM (inactive)	> 100 µM (inactive)	> 100 µM (inactive)	> 100 µM	> 100 µM (inactive)	> 100 µM (inactive)
CCOC(=O)N1CCC(=C2c3ccc(Cl)cc3CCc3cccnc32)CC1 [LORATADINE]	11.8 µM (inactive)	4.32 µM (inactive)	–	8.83 µM (inactive)	20 µM (inactive)	3.18 µM (inactive)	–	15 µM (inactive)	–	13.2 µM (inactive)	–	10 µM (inactive)	15.2 µM (inactive)	6.12 µM (inactive)	7.78 µM (inactive)	10.6 µM (inactive)	7.55 µM	0.849 µM (active)	–
COC(=O)Nc1nc2cc(S(=O)(=O)n3nnc4ccccc43)ccc2[nH]1	> 100 µM (inactive)	> 100 µM (inactive)	10.2 µM (inactive)	> 100 µM (inactive)	43.5 µM (inactive)	> 100 µM (inactive)	26.6 µM (inactive)	5.61 µM (inactive)	21.5 µM (inactive)	–	21.4 µM (inactive)	14.5 µM (inactive)	15.8 µM (inactive)	> 100 µM (inactive)	> 100 µM (inactive)	> 100 µM (inactive)	> 100 µM	57 µM (inactive)	29.9 µM (inactive)
CC(=O)Nc1ccc(Nc2nc(=O)[nH]c(=O)[nH]2)cc1	> 100 µM (inactive)	> 100 µM (inactive)	> 100 µM (inactive)	> 100 µM (inactive)	> 100 µM (inactive)	> 100 µM (inactive)	> 100 µM (inactive)	> 100 µM (inactive)	> 100 µM (inactive)	> 100 µM (inactive)	> 100 µM (inactive)	> 100 µM (inactive)	> 100 µM (inactive)	–	> 100 µM (inactive)	> 100 µM (inactive)	> 100 µM	> 100 µM (inactive)	> 100 µM (inactive)
CCOC(=O)c1ccc(NCc2ccc3nc(OC)c(OC)nc3c2)cc1	> 100 µM (inactive)	> 100 µM (inactive)	> 100 µM (inactive)	> 100 µM (inactive)	72.6 µM (inactive)	> 100 µM (inactive)	> 100 µM (inactive)	> 100 µM (inactive)	> 100 µM (inactive)	–	> 100 µM (inactive)	58.3 µM (inactive)	> 100 µM (inactive)	> 100 µM (inactive)	> 100 µM (inactive)	> 100 µM (inactive)	> 100 µM	> 100 µM (inactive)	> 100 µM (inactive)
COc1ccc(C(=O)/C=C/c2ccncc2)cc1OC	–	4.02 µM (inactive)	10.3 µM (inactive)	14.8 µM (inactive)	12 µM (inactive)	8.93 µM (inactive)	11.2 µM (inactive)	12.9 µM (inactive)	13.7 µM (inactive)	16.4 µM (inactive)	16.1 µM (inactive)	14.1 µM (inactive)	16.3 µM (inactive)	2.31 µM (inactive)	6.27 µM (inactive)	–	15.4 µM	17.1 µM (inactive)	18.5 µM (inactive)
Cc1cc2c(=O)[nH]nc(N)c2c(N)n1	> 100 µM (inactive)	> 100 µM (inactive)	–	> 100 µM (inactive)	> 100 µM (inactive)	> 100 µM (inactive)	> 100 µM (inactive)	> 100 µM (inactive)	> 100 µM (inactive)	> 100 µM (inactive)	> 100 µM (inactive)	> 100 µM (inactive)	> 100 µM (inactive)	> 100 µM (inactive)	–	> 100 µM (inactive)	> 100 µM	> 100 µM (inactive)	> 100 µM (inactive)
Cc1ccc(-n2c(N)c(C#N)c3[nH]nc(N)c3c2=O)cc1	> 100 µM (inactive)	> 100 µM (inactive)	> 100 µM (inactive)	> 100 µM (inactive)	> 100 µM (inactive)	> 100 µM (inactive)	> 100 µM (inactive)	> 100 µM (inactive)	> 100 µM (inactive)	> 100 µM (inactive)	> 100 µM (inactive)	> 100 µM (inactive)	> 100 µM (inactive)	> 100 µM (inactive)	–	> 100 µM (inactive)	> 100 µM	> 100 µM (inactive)	> 100 µM (inactive)
COc1c(C)c2c(c(=O)c3c(C)cccc3n2C)c2c1c(=O)c1c(C)cccc1n2C	–	> 10 µM (inactive)	> 10 µM (inactive)	> 10 µM (inactive)	> 10 µM (inactive)	> 10 µM (inactive)	> 10 µM (inactive)	> 10 µM (inactive)	> 10 µM (inactive)	> 10 µM (inactive)	> 10 µM (inactive)	> 10 µM (inactive)	> 10 µM (inactive)	> 10 µM (inactive)	> 10 µM (inactive)	> 10 µM (inactive)	> 10 µM	> 10 µM (inactive)	> 10 µM (inactive)
Cc1cc(S(=O)(=O)NC2=Nc3cccc(F)c3CN2)c(S)cc1Cl	53.6 µM (inactive)	57.4 µM (inactive)	84.1 µM (inactive)	68.9 µM (inactive)	> 100 µM (inactive)	–	44.5 µM (inactive)	> 100 µM (inactive)	76.9 µM (inactive)	> 100 µM (inactive)	30.1 µM (inactive)	> 100 µM (inactive)	–	–	63 µM (inactive)	45.7 µM (inactive)	69.5 µM	> 100 µM (inactive)	23.2 µM (inactive)
O=C(Nc1ccccc1C(=O)O)C(=Cc1ccccc1O)NC(=O)c1ccccc1	> 100 µM (inactive)	> 100 µM (inactive)	58.6 µM (inactive)	32.4 µM (inactive)	> 100 µM (inactive)	> 100 µM (inactive)	> 100 µM (inactive)	> 100 µM (inactive)	> 100 µM (inactive)	–	> 100 µM (inactive)	> 100 µM (inactive)	> 100 µM (inactive)	> 100 µM (inactive)	> 100 µM (inactive)	> 100 µM (inactive)	> 100 µM	> 100 µM (inactive)	> 100 µM (inactive)
